One series concerns HaCaT keratinocytes. Kind of series: Investigations on the lipid (fatty acid) content of HaCaT keratinocytes under biotin. The series is classed as cell-based, human. The procedure:
(§1) HaCaT cells (human adult low-calcium high-temperature keratinocytes) and native human keratinocytes are cultured in Gibco's keratinocyte serum-free medium (SFM) with addition of BPE (25 μg/ml bovine hypophysis extract) and rEGF (0.1-0.2 ng/ml, recombinant epidermal growth factor) in 5% strength CO2 atmosphere (pH 7.2-7.4) at 36.6° C. in the low-calcium status (0.09 mM) in culture flasks (1 million cells/20 ml of SFM) and treated with the biotin solution (biotin dissolved in buffer according to McIloaine; medium concentration 10^−7-10^−3 mol/l and solvent control) on the 3rd day after sowing. On the 6th day, the confluent monolayer is harvested and the samples are prepared, individual pellets up to 3 million cells each being used for the lipid extraction and for the protein determination.
The cells are extracted following the lipid extraction of Bligh and Dyer (B. E. Bligh et al. (1959) A rapid method of total lipid extraction and purification. Can. J. Biochem. Physiol. 37: 911-917). For this, the cell pellet is treated with 20 ml of a solvent mixture (chloroform: methanol=2:1), homogenized with stirring and extracted with shaking in the dark for 30 min. It is then filtered through a sterile filter and the extract is concentrated on a vacuum rotary evaporator.
(§2) The lipid film is taken up in 4 ml of methanol (gradient grade for HPLC) and analyzed via GC-MS.
The extracted lipids of the keratinocytes are analyzed as methanolic solutions via GC-MS in order to quantify the fatty acids contained therein. 100 μl of the solution are reacted with 1 μl each of 0.2 M trimethylsulfionium hydroxide to give methyl esters in order to improve the evaporability.
(§3) The protein content of the cells is determined according to the Lowry method using the protein assay kit. After preparation according to the procedure for the kit (P 5656), the measurement was carried out on an absorption reader at 690 nm.
The results of the influence of biotin on the fatty acid content of HaCaT keratinocytes are shown in FIGS. 1 to 4 for various concentrations of biotin (dissolved in buffer according to McIloaine). As control, the fatty acid content of the HaCaT keratinocytes after corresponding action of the buffer without biotin is moreover shown in FIGS. 1 to 4. The contents of the fatty acids myristic acid (MA), palmitic acid (PA), stearic acid (SA), oleic acid (OS) and linoleic acid (LA) are shown based on the protein content of the cells.

Series [1] deals with native human keratinocytes. Kind of series: Investigations on the lipid (fatty acid) content of native human keratinocytes under biotin. The series is classed as cell-based. As to conditions: under the action of biotin. The method, then: as §1, with “determination. […]” for “determination.”
as §2
The extracted lipids of the keratinocytes are analyzed as methanolic solutions via GC-MS in order to quantify the fatty acids contained therein. […]
as §3

Series [2] is described as follows: Penetration investigations on human skin ex vivo (FRANZ diffusion cell, 14C-biotin). The series is classed as in vitro ADME. The text has this: To characterize the penetration behavior of biotin from different emulsions in excised human skin, FRANZ's diffusion cell is chosen as an in-vitro model. The selection of the model is based on the experience of the authors, who were able to detect correlating results between the in-vitro data of the model and the in-vivo results (R. J. Feldmann, et al. (1970): Absorption of some organic compounds through the skin in man. J. Invest. Dermatol. 54: 399-404: T. J. Franz (1975): Percutaneous absorption. On the relevance of in vitro data. J. Invest. Dermatol. 64: 190-195). The basic unit of the FRANZ diffusion cell consists of a double-walled, temperature-controllable glass section. The acceptor liquid which is continuously kept in the homogeneous state by stirring is situated therein. In direct contact with the acceptor is the sample material on a gauze, which is stabilized by a glass ring and a metal clamp. A glass cover functions as evaporation protection for the upkeep of largely constant hydration conditions during the investigation period. […] It is determined quantitatively in fractionation of the detachments in pairs (10×2). […] Following this, the samples are measured in the liquid scintillation counter with addition of two blank values. […]

Another series has as its system skin of old people. The following applies: cited from earlier work.
For series [3] the following is noted: cited from earlier work.

Take `O=C(O)CCCCC1SCC2NC(=O)NC21` (stereo not drawn) [biotin, hexahydro-2-oxiothieno [3,4-d]imidazole-4-valeric acid]: the “concentration of linoleic acid (LA)” value in the series with HaCaT keratinocytes (HaCaT keratinocytes, under the action of biotin) is “absence of an increase”; in series [1], “absence of an increase”. For the same molecule, the “lipid synthesis power of keratinocytes” value was “increased” with HaCaT keratinocytes (biotin concentration in the medium 10^−5 to 10^−3 mol/l) and “inefficacious” in the series on HaCaT keratinocytes (biotin concentration in the medium 10^−6 mol/l). In addition, the “concentration of the fatty acids myristic acid (MA), palmitic acid (PA), stearic acid (SA) and oleic acid (OA)” value with HaCaT keratinocytes (culture of HaCaT keratinocytes, under the action of biotin) is listed as “Increases”; in series [1], “Increases”. Also, the effective biotin concentration in the series with HaCaT keratinocytes (stimulation of lipid synthesis, from FIG. 2) is recorded as 10^−5 mol/l. In series [2], the “penetration of biotin through the horny layer of the human skin” value is “does not penetrate or does not penetrate in an efficacious concentration”. For the same molecule, the “epithelial and histopathological changes in the areas treated” value with skin of old people (in vivo) was “not possible to show any epithelial and histopathological changes at all”. In addition, the “development of wrinkles on the skin of old people” value in the series with skin of old people (topically applied formulations, biotin content 0.25% and 0.50%) was “visible reduction”. The “efficacy in soft, brittle and splitting nails, different forms of alopecia and atopic and seborrheic dermatitis” value in series [3] (continuous biotin therapy) is given as “possible to show the efficacy”. Also, in series [3] (in vivo), the side effects result is listed as “no side effects at all”.

The values are drawn from US6660251B1, “Galenic formulation containing biotin” (Merck Patent GmbH, priority 1999, dated 2003).
